Test results: the CheMixHub ionic liquid set

Experiment: xn = mol fraction of the nth substance listed

O=S(=O)([N-]S(=O)(=O)C(F)(F)F)C(F)(F)F.[Li+] + CC[n+]1ccn(C)c1.O=S(=O)([N-]S(=O)(=O)C(F)(F)F)C(F)(F)F + O
Settings	electrical conductivity [S/m]	viscosity [mPa·s]
283 K, 101 kPa, x1 = 0.2649, x2 = 0	0.62	–
283 K, 101 kPa, x1 = 0.2649, x2 = 0.2649	0.37	90.3
283 K, 101 kPa, x1 = 0.4189, x2 = 0.2649	0.049	–
293 K, 101 kPa, x1 = 0.2649, x2 = 0	0.89	69.2
293 K, 101 kPa, x1 = 0.2649, x2 = 0.2649	0.56	55
293 K, 101 kPa, x1 = 0.4189, x2 = 0.2649	0.093	407
293.15 K, 100 kPa, x1 = 0.2745, x2 = 0.3509	–	55.7
293.15 K, 100 kPa, x1 = 0.3106, x2 = 0.3509	–	71.5
293.15 K, 100 kPa, x1 = 0.3509, x2 = 0.3509	–	111
293.15 K, 100 kPa, x1 = 0.3868, x2 = 0.3509	–	157
293.15 K, 100 kPa, x1 = 0.4189, x2 = 0.3509	–	220
293.15 K, 100 kPa, x1 = 0.4478, x2 = 0.3509	–	312
293.15 K, 100 kPa, x1 = 0.474, x2 = 0.3509	–	470
293.15 K, 100 kPa, x1 = 0.4978, x2 = 0.3509	–	715
298.1 K, 101 kPa, x1 = 0.2649, x2 = 0	1.04	55.3
298.1 K, 101 kPa, x1 = 0.2649, x2 = 0.2649	0.67	44.2
298.1 K, 101 kPa, x1 = 0.4189, x2 = 0.2649	0.12	293
298.15 K, 100 kPa, x1 = 0.2745, x2 = 0.3509	–	43.1
298.15 K, 100 kPa, x1 = 0.3106, x2 = 0.3509	–	55.3
298.15 K, 100 kPa, x1 = 0.3509, x2 = 0.3509	–	86.4
298.15 K, 100 kPa, x1 = 0.3868, x2 = 0.3509	–	120
298.15 K, 100 kPa, x1 = 0.4189, x2 = 0.3509	–	164
298.15 K, 100 kPa, x1 = 0.4478, x2 = 0.3509	–	227
298.15 K, 100 kPa, x1 = 0.474, x2 = 0.3509	–	336
298.15 K, 100 kPa, x1 = 0.4978, x2 = 0.3509	–	497
303 K, 101 kPa, x1 = 0.2649, x2 = 0	1.22	45.4
303 K, 101 kPa, x1 = 0.2649, x2 = 0.2649	0.8	36
303 K, 101 kPa, x1 = 0.4189, x2 = 0.2649	0.16	216
303.15 K, 100 kPa, x1 = 0.2745, x2 = 0.3509	–	34.6
303.15 K, 100 kPa, x1 = 0.3106, x2 = 0.3509	–	44.4
303.15 K, 100 kPa, x1 = 0.3509, x2 = 0.3509	–	62.3
303.15 K, 100 kPa, x1 = 0.3868, x2 = 0.3509	–	92.4
303.15 K, 100 kPa, x1 = 0.4189, x2 = 0.3509	–	126
303.15 K, 100 kPa, x1 = 0.4478, x2 = 0.3509	–	171
303.15 K, 100 kPa, x1 = 0.474, x2 = 0.3509	–	245
303.15 K, 100 kPa, x1 = 0.4978, x2 = 0.3509	–	356
313 K, 101 kPa, x1 = 0.2649, x2 = 0	1.6	30.9
313 K, 101 kPa, x1 = 0.2649, x2 = 0.2649	1.1	24.9
313 K, 101 kPa, x1 = 0.4189, x2 = 0.2649	0.25	125
313.15 K, 100 kPa, x1 = 0.2745, x2 = 0.3509	–	23.4
313.15 K, 100 kPa, x1 = 0.3106, x2 = 0.3509	–	30.1
313.15 K, 100 kPa, x1 = 0.3509, x2 = 0.3509	–	41.2
313.15 K, 100 kPa, x1 = 0.3868, x2 = 0.3509	–	57.6
313.15 K, 100 kPa, x1 = 0.4189, x2 = 0.3509	–	78.2
313.15 K, 100 kPa, x1 = 0.4478, x2 = 0.3509	–	102
313.15 K, 100 kPa, x1 = 0.474, x2 = 0.3509	–	142
313.15 K, 100 kPa, x1 = 0.4978, x2 = 0.3509	–	197
323 K, 101 kPa, x1 = 0.2649, x2 = 0	2.04	21.8
323 K, 101 kPa, x1 = 0.2649, x2 = 0.2649	1.45	18.2
323 K, 101 kPa, x1 = 0.4189, x2 = 0.2649	0.38	78.5
323.15 K, 100 kPa, x1 = 0.2745, x2 = 0.3509	–	16.7
323.15 K, 100 kPa, x1 = 0.3106, x2 = 0.3509	–	21.4
323.15 K, 100 kPa, x1 = 0.3509, x2 = 0.3509	–	29
323.15 K, 100 kPa, x1 = 0.3868, x2 = 0.3509	–	39
323.15 K, 100 kPa, x1 = 0.4189, x2 = 0.3509	–	50.9
323.15 K, 100 kPa, x1 = 0.4478, x2 = 0.3509	–	61.3
323.15 K, 100 kPa, x1 = 0.474, x2 = 0.3509	–	89.2
323.15 K, 100 kPa, x1 = 0.4978, x2 = 0.3509	–	120
333 K, 101 kPa, x1 = 0.2649, x2 = 0	2.58	16.2
333 K, 101 kPa, x1 = 0.2649, x2 = 0.2649	1.83	13.8
333 K, 101 kPa, x1 = 0.4189, x2 = 0.2649	0.53	51.9
333.15 K, 100 kPa, x1 = 0.2745, x2 = 0.3509	–	12.4
333.15 K, 100 kPa, x1 = 0.3106, x2 = 0.3509	–	15.9
333.15 K, 100 kPa, x1 = 0.3509, x2 = 0.3509	–	20.1
333.15 K, 100 kPa, x1 = 0.3868, x2 = 0.3509	–	26.2
333.15 K, 100 kPa, x1 = 0.4189, x2 = 0.3509	–	34.2
333.15 K, 100 kPa, x1 = 0.4478, x2 = 0.3509	–	41.8
333.15 K, 100 kPa, x1 = 0.474, x2 = 0.3509	–	53.7
333.15 K, 100 kPa, x1 = 0.4978, x2 = 0.3509	–	78.1
343.15 K, 100 kPa, x1 = 0.2745, x2 = 0.3509	–	9.49
343.15 K, 100 kPa, x1 = 0.3106, x2 = 0.3509	–	12.2
343.15 K, 100 kPa, x1 = 0.3509, x2 = 0.3509	–	15.2
343.15 K, 100 kPa, x1 = 0.3868, x2 = 0.3509	–	19.1
343.15 K, 100 kPa, x1 = 0.4189, x2 = 0.3509	–	24.5
343.15 K, 100 kPa, x1 = 0.4478, x2 = 0.3509	–	29.6
343.15 K, 100 kPa, x1 = 0.474, x2 = 0.3509	–	37.2
343.15 K, 100 kPa, x1 = 0.4978, x2 = 0.3509	–	49.7
353.15 K, 100 kPa, x1 = 0.2745, x2 = 0.3509	–	7.49
353.15 K, 100 kPa, x1 = 0.3106, x2 = 0.3509	–	9.62
353.15 K, 100 kPa, x1 = 0.3509, x2 = 0.3509	–	11.8
353.15 K, 100 kPa, x1 = 0.3868, x2 = 0.3509	–	14.5
353.15 K, 100 kPa, x1 = 0.4189, x2 = 0.3509	–	18.4
353.15 K, 100 kPa, x1 = 0.4478, x2 = 0.3509	–	21.9
353.15 K, 100 kPa, x1 = 0.474, x2 = 0.3509	–	27
353.15 K, 100 kPa, x1 = 0.4978, x2 = 0.3509	–	35
363.15 K, 100 kPa, x1 = 0.2745, x2 = 0.3509	–	6.01
363.15 K, 100 kPa, x1 = 0.3106, x2 = 0.3509	–	7.72
363.15 K, 100 kPa, x1 = 0.3509, x2 = 0.3509	–	9.69
363.15 K, 100 kPa, x1 = 0.3868, x2 = 0.3509	–	11.3
363.15 K, 100 kPa, x1 = 0.4189, x2 = 0.3509	–	14.2
363.15 K, 100 kPa, x1 = 0.4478, x2 = 0.3509	–	16.6
363.15 K, 100 kPa, x1 = 0.474, x2 = 0.3509	–	20.3
363.15 K, 100 kPa, x1 = 0.4978, x2 = 0.3509	–	25.7
